Ki and EC50 data for 5 compounds are collected here from ChEMBL document CHEMBL1129213, “Synthesis and structure-activity relationships of potent conformationally restricted retinoid X receptor ligands” (Bioorg Med Chem Lett, 1997).

pEC50, pKi: −log10 of the molar value.

Assay [1] has as its target T1, Retinoic acid receptor RXR-alpha (Homo sapiens, UniProt P19793).
T1 sequence (P19793 whole entry): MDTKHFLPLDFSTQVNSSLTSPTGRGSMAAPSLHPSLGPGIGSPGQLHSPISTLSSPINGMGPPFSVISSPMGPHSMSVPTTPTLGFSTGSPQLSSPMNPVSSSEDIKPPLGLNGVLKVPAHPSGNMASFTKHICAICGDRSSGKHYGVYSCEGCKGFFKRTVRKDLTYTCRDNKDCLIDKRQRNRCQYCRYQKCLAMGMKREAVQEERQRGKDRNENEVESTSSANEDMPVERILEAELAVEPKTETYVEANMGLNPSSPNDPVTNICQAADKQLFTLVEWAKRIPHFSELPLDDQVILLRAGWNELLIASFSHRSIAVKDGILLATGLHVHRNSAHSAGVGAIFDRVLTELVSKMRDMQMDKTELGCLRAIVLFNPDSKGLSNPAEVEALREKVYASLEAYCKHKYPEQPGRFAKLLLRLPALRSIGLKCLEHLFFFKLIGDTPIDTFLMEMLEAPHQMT
The assay is described as follows: Inhibition of [3H]9-cis-RA binding to RXR alpha receptor.

The target of assay [2] is T2, Retinoic acid receptor alpha (Homo sapiens, UniProt P10276).
T2 sequence (P10276 whole entry): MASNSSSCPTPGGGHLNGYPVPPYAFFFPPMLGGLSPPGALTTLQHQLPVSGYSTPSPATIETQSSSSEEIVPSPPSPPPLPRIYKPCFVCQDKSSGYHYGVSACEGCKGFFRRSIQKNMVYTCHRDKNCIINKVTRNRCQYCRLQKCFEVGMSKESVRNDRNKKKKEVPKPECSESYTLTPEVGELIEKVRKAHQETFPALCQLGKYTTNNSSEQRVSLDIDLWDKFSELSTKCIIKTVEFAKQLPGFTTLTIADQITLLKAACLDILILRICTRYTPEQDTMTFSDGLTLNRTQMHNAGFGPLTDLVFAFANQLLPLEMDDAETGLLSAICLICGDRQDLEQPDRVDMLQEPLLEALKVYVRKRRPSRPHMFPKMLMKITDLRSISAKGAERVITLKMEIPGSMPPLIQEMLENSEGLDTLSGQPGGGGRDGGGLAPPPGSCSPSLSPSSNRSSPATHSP
The assay is described as follows: Transcriptional activation in CV-1 cells expressing retinoic acid receptor RAR alpha; inactive. The class given is functional, cell-based.

In assay [3] the target is T3, Retinoic acid receptor beta (Homo sapiens, UniProt P10826).
T3 sequence (P10826 whole entry): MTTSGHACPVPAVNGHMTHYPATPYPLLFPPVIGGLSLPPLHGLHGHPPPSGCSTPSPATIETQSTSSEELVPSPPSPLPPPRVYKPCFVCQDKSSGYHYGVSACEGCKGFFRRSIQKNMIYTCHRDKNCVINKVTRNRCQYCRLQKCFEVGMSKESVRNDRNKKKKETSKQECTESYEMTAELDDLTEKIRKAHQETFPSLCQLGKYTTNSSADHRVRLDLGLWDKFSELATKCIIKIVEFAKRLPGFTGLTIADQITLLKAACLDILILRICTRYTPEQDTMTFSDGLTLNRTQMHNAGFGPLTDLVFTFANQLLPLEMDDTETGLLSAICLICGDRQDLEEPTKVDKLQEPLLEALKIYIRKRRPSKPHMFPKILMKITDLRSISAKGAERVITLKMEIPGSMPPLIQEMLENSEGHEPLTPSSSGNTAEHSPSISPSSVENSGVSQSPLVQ
The assay is described as follows: Inhibition of [3H]ATRA binding to RAR beta receptor.

Assay [4] has as its target T4, Retinoic acid receptor RXR-beta (Homo sapiens, UniProt P28702).
T4 sequence (P28702 whole entry): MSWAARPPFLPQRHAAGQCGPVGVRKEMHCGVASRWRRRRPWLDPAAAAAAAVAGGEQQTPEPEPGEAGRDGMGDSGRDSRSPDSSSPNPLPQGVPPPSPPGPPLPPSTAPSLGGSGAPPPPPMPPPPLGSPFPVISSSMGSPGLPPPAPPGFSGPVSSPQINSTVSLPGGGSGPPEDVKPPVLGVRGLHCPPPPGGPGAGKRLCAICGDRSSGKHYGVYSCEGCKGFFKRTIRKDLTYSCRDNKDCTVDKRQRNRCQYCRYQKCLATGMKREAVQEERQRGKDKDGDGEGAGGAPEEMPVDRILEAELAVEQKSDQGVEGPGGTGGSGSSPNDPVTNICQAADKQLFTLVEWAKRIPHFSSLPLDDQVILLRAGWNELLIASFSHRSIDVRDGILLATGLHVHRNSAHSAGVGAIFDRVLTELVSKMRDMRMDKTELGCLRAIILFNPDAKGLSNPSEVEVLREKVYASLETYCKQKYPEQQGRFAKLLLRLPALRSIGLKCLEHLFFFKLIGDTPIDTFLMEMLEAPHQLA
The assay is described as follows: Inhibition of [3H]9-cis-RA binding to RXR beta receptor.

For assay [5], the target named is T5, Retinoic acid receptor RXR-gamma (Homo sapiens, UniProt P48443).
T5 sequence (P48443 whole entry): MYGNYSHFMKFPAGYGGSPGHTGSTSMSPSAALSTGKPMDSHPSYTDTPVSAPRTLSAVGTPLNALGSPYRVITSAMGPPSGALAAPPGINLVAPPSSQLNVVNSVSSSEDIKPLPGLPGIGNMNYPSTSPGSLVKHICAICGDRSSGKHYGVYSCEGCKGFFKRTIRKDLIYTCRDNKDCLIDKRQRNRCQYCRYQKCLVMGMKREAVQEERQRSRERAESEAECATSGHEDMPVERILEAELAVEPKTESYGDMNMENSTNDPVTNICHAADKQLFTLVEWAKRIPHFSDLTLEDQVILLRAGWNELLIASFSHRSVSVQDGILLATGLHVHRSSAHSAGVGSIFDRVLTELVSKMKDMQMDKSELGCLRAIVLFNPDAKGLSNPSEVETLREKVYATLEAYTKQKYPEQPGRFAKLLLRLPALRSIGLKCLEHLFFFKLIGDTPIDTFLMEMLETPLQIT
The assay is described as follows: Transcriptional activation in CV-1 cells expressing retinoid X receptor RXR gamma. The class given is functional, cell-based.

Assay [6] addresses T5, Retinoic acid receptor RXR-gamma. The assay is described as follows: Inhibition of [3H]9-cis-RA binding to RXR gamma receptor.
Assay [7] concerns the target T6, Retinoic acid receptor gamma (Homo sapiens, UniProt P13631).
T6 sequence (P13631 whole entry): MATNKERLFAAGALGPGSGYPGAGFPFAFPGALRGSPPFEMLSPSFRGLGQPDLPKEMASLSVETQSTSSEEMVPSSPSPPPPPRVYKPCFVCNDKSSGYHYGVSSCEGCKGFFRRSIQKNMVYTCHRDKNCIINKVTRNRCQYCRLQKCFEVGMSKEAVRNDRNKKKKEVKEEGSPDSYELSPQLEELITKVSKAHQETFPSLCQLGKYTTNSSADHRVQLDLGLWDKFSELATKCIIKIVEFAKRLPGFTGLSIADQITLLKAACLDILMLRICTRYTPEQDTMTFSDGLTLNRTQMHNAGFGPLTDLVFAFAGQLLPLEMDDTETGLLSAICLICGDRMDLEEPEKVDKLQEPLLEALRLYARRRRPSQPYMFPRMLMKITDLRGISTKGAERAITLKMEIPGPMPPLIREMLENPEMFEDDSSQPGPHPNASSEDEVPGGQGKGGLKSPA
The assay is described as follows: Inhibition of [3H]ATRA binding to RAR gamma receptor.

In assay [8] the target is T2, Retinoic acid receptor alpha. The assay is described as follows: Inhibition of [3H]ATRA binding to RAR alpha receptor.
The target in assay [9] is T4, Retinoic acid receptor RXR-beta. The assay is described as follows: Transcriptional activation in CV-1 cells expressing retinoid X receptor RXR beta. The class given is functional, cell-based.
Assay [10] deals with T3, Retinoic acid receptor beta. The note with it: cv-1.
For assay [11] the target is unchanged. The assay is described as follows: Transcriptional activation in CV-1 cells expressing retinoic acid receptor RAR beta. The assay is classed as functional, cell-based.
Assay [12] has as its target T1, Retinoic acid receptor RXR-alpha. The assay is described as follows: Transcriptional activation in CV-1 cells expressing retinoid X receptor RXR alpha. The assay is classed as functional, cell-based.
For assay [13], the target named is T2, Retinoic acid receptor alpha. The assay is described as follows: Transcriptional activation in CV-1 cells expressing retinoic acid receptor RAR alpha; not active. The assay is classed as functional, cell-based.
Assay [14] addresses T6, Retinoic acid receptor gamma. The assay is described as follows: Transcriptional activation in CV-1 cells expressing retinoic acid receptor RAR gamma. The assay is classed as functional, cell-based.
The target is the same in assay [15]. The note with it: cv-1.

In general, pKi refers to the negative decadic logarithm of the Ki, by convention in mol/L. A low value points to a large Ki. One may read the pEC50 as the EC50 on a negative log10 scale, so that one unit is a factor of ten. Turning to `CC(/C=C/C1(c2cc3c(cc2C)C(C)(C)CCC3(C)C)CC1)=C\C(=O)O`, the pKi in assay [1] is 8.40; in [3], < 6.00; in assay [4], 8.40; in assay [6], 8.30; in assay [7], < 6.00; in assay [8] it was < 6.00. In addition, the EC50 result in assay [2] and in assay [10] was “Not Active” throughout. Besides, the results for the negative logarithm of the EC50 (pEC50) in assay [5] and in assay [9] were 8.15 and 7.89, respectively.

For `CC(/C=C/C1(c2cc3c(cc2C)C(C)(C)CCC3(C)C)CCCC1)=C\C(=O)O`, the pEC50 in [11] is 6.09; in [12] it was 5.60; in assay [5], 5.57; in assay [14], 5.75; in assay [9], 5.70. The pKi in assay [1], in assay [3], in [4], in assay [6], in [7] and in [8] was < 6.00 in each case. Besides, the EC50 result in [13] is given as “Not Active”.

Consider `CC(/C=C/C1(c2ccc3c(c2)C(C)(C)CCC3(C)C)CC1)=C\C(=O)O`, for which the pEC50 is 6.54 in assay [11]; 7.64 in [12]; 7.62 in assay [5]; 6.40 in assay [14]; 7.72 in assay [9]. The pKi in assay [1] was 8.52; in assay [3] it was < 6.00; in [4] it was 8.15; in assay [6], 8.22; in assay [7], < 6.00; in assay [8] it was < 6.00. Moreover, in [13], the EC50 entry was “Not Active”.

In the case of `CC(/C=C/C1(c2ccc3c(c2)C(C)(C)CCC3(C)C)CCCC1)=C\C(=O)O`, the values for the pEC50 in assay [12], in [5] and in assay [9] were 7.29, 6.72 and 6.90, respectively. Moreover, the pKi is 7.04 in assay [1]; < 6.00 in [3]; 6.91 in assay [4]; 6.76 in [6]; < 6.00 in [7]; < 6.00 in assay [8]. Also, the EC50 entry in assay [13], in assay [10] and in [15] was “Not Active” each time.

As for `C=C(c1ccc(C(=O)O)cc1)c1ccc2c(c1)C(C)(C)CCC2(C)C`, the pKi is 6.82 in assay [1]; 6.04 in assay [3]; 6.70 in assay [4]; 6.54 in assay [6]; 6.05 in assay [7]; 6.03 in [8]. The EC50 result in [13] is “Not Active”. The figures for the pEC50 in assay [5] and in assay [9] were 6.39 and 6.31, respectively.
